Experimental data: paper PMC8313326, “Phytochemical Analysis and Evaluation of Biological Activity of Lawsonia inermis Seeds Related to Alzheimer's Disease” (Evidence-based Complementary and Alternative Medicine : eCAM, 2021)
Read-outs that look alike come from different tables or passages of the source.

How the values were obtained:
[1] = Antioxidant activity by DPPH test; conditions: 30 min, room temperature, dark, 517 nm
Experimental: Several concentrations of the test fraction in MeOH were prepared. Aliquots of different concentrations of the fraction (1 mL) were added to the DPPH methanolic solution (1.0 mL, 0.1 mM), and the mixtures were shaken vigorously and left for 30 min at room temperature in the dark.
In the same procedure, butylated hydroxyanisole (BHA) was used as the positive control. The DPPH radical scavenging activity of the fractions was expressed as IC50 (μg/mL), which is obtained from linear regression plot between concentrations of the test fractions and percent inhibitions.

[2] = biological target: T1, acetylcholinesterase (AChE, E.C. 3.1.1.7, Type V-S) (Electrophorus electricus, UniProt O42275); experiment: biochemical
T1 construct: Type V-S, lyophilized powder, from electric eel; purchased Sigma-Aldrich; host or cells: electric eel
From the text: (§1) Acetylcholinesterase (AChE, E.C. 3.1.1.7, Type V-S, lyophilized powder, from electric eel, 1000 units), butyrylcholinesterase (BChE, E.C. 3.1.1.8, from equine serum), acetylthiocholine iodide (ATCI), and 5,5-dithiobis-2-nitrobenzoic acid (DTNB) were purchased from Sigma-Aldrich. Potassium dihydrogen phosphate, dipotassium hydrogen phosphate, potassium hydroxide, and sodium hydrogen carbonate were obtained from Fluka. Solvents for the extraction and column chromatography (CC) were of technical grade and redistilled before use. Deuterated solvents (100 atom % D) were obtained from Sigma-Aldrich.
(§2) In vitro anti-ChEI activity was performed against acetylcholinesterase (AChE, E.C. 3.1.1.7, Type V-S, lyophilized powder, from electric eel, 1000 units) and butyrylcholinesterase (BChE, E.C. 3.1.1.8, from equine serum) using the modified Ellman's method. […] Each well consisted of 50 μL potassium phosphate buffer (KH2PO4/K2HPO4, 0.1 M, pH 8), 25 μL prepared sample as described above, and AChE enzyme (25 μL) with a final concentration of 0.22 units/mL in the buffer. They were preincubated for 15 min at room temperature, and then, 125 μL DTNB (3 mM in buffer) was added to the mixture. […] In parallel, a blank containing all components without enzyme was used in order to account for the nonenzymatic reaction. […] The IC50 values were determined graphically from log concentration vs. % of inhibition curves. All experiments were performed in triplicate. BChE inhibition assay was performed in the same method.

[3] = biological target: T2, butyrylcholinesterase (BChE, E.C. 3.1.1.8) (Equus caballus, UniProt P81908); experiment: biochemical
T2 construct: butyrylcholinesterase (BChE, E.C. 3.1.1.8, from equine serum); purchased Sigma-Aldrich; host or cells: equine serum
From the text: as §1, §2

[4] = tested on: acetylcholinesterase; conditions: cited from earlier work
[5] = tested on: BChE; set-up: method as in PMID 24354178; conditions: cited from earlier work

T1 sequence (O42275 24-633): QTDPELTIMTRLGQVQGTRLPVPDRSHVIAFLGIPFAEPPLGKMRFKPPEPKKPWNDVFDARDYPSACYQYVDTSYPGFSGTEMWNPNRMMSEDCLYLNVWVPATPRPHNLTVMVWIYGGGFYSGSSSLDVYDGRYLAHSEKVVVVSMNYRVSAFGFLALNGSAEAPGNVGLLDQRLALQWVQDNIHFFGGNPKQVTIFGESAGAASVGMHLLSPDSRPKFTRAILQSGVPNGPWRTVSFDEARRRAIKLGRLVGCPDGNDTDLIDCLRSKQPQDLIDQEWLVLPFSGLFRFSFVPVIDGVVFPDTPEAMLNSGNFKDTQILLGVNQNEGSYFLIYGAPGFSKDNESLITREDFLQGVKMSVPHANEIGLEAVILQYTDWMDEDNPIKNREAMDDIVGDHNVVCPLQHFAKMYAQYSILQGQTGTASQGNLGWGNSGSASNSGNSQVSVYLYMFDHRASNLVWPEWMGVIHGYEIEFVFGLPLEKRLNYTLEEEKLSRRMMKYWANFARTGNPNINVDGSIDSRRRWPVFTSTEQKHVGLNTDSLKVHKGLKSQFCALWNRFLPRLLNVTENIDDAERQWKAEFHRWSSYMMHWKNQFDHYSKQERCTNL
T2 sequence (P81908 whole entry): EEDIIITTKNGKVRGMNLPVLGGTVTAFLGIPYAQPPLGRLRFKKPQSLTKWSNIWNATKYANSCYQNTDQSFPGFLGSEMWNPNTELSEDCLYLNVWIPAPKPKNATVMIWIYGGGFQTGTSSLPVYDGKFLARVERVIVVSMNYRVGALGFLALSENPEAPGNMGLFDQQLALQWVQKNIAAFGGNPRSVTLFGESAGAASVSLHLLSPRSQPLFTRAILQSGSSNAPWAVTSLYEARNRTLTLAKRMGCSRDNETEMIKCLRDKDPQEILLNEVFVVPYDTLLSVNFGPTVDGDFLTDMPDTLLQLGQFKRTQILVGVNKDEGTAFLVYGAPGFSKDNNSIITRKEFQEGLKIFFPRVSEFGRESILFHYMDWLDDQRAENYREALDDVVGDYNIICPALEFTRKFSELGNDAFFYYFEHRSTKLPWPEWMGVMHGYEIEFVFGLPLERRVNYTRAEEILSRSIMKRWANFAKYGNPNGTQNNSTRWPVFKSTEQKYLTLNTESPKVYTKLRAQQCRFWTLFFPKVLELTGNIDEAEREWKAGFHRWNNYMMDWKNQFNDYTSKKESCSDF

With `COc1ccc(O)c(C(C)(C)C)c1` [BHA, butylated hydroxyanisole] as the compound, how does the “DPPH free radical scavenging IC50” value [1] read?
The value was 3.79 ± 0.37 µg/mL.

With `CC[C@H](CC[C@@H](C)[C@H]1CC[C@H]2[C@@H]3CC=C4C[C@@H](O)CC[C@]4(C)[C@H]3CC[C@]12C)C(C)C` [compound 1, β-Sitosterol] as the compound, how does the IC50 [2] read?
The IC50 was over 100 µM.

What about the IC50 [3] of the same compound?
The IC50 was over 100 µM.

For `CC(=O)O[C@H]1CC[C@@]2(C)C(CC[C@]3(C)C2CC=C2C4CC(C)(C)CC[C@]4(C(=O)O)CC[C@]23C)C1(C)C` (stereo partly drawn) [compound 2, 3-O-β-Acetyloleanolic acid], which IC50 [2] is on record?
The IC50 was over 100 µM.

What about the IC50 [3] of the same compound?
The IC50 was 77.13 ± 0.01 µM.

With `CC1(C)CC[C@]2(C(=O)O)CC[C@]3(C)C(=CCC4[C@@]5(C)CC[C@H](OC(=O)/C=C/c6ccc(O)cc6)C(C)(C)C5CC[C@]43C)C2C1` (stereo partly drawn) [compound 3, 3-O-(Z)-Coumaroyl oleanolic acid] as the compound, how does the IC50 ([2]; isolated compounds, mean ± SD, three independent experiments, read-out: AChE IC50) read?
Its IC50 is over 100 µM.

What about the IC50 ([3]; isolated compounds, mean ± SD, three independent experiments, read-out: BChE IC50) of the same compound?
The IC50 was over 100 µM.

What does the source list for `C=C(C)[C@@H]1CC[C@]2(C(=O)O)CC[C@]3(C)[C@H](CC[C@@H]4[C@@]5(C)CC[C@H](O)C(C)(C)[C@@H]5CC[C@]43C)[C@@H]12` [compound 4, Betulinic acid]?
IC50 [2]: > 100 µM; IC50 [3]: > 100 µM

With `CC1(C)CC[C@]2(C(=O)O)CC[C@]3(C)C(=CC[C@@H]4[C@@]5(C)CC[C@H](O)C(C)(C)[C@@H]5CC[C@]43C)[C@@H]2C1` [compound 5, Oleanolic acid] as the compound, how does the IC50 ([3]; BChE IC50, isolated compounds, mean ± SD, three independent experiments) read?
The IC50 was 72.2 ± 0.42 µM.

For `COc1ccc2c3c1O[C@H]1C[C@@H](O)C=C[C@@]31CCN(C)C2` [galantamine], which “inhibitory activity against acetylcholinesterase” value [4] is on record?
The value was “significant inhibitory activity”.

Which BChE inhibitory activity [5] does the source give for `COc1ccc(C(C)=O)c(O)c1` [paeonol] here?
Its BChE inhibitory activity is “selective BChE inhibitory activity”.

For `CNC(=O)Oc1ccc2c(c1)[C@]1(C)CCN(C)[C@@H]1N2C` [physostigmine], which “inhibitory activity against acetylcholinesterase” value [4] is on record?
The value was “significant inhibitory activity”.

With `CN1CC[C@@]23C=C[C@H](O)C[C@@H]2Oc2c(O)ccc(c23)C1` [sanguinine] as the compound, how does the “inhibitory activity against acetylcholinesterase” value [4] read?
The value was “significant inhibitory activity”.

Which BChE inhibitory activity [5] does the source give for hydroperoxy-24-vinylcholesterol here?
Its BChE inhibitory activity is “selective BChE inhibitory activity”.
